Results from patent US12473287B2, “Synthetic co-crystals of anhydrous guanine and process for preparing the same” (EcoCrystal Ltd., priority 2016, dated 2025).
Values joined by “and” are separate entries in the source; they are usually repeats but may differ in a detail not shown here. Identical values can stand only once.

Columns and labels:
[1] = in the reflected direction; known values; cited from earlier work
[2] = Dry storage stability at ambient conditions (FT-IR); format: physicochemical; settings: stored dry at ambient conditions; FT-IR fresh vs 3 months old
Description: FIG. 5 presents FT-IR spectra, showing fresh guanine monohydrate (top) vs 3 months old guanine monohydrate. Only small differences in the peak intensities are visible after 3 months. The typical signatures of structured water are still present (ν1, and ν3 stretching modes (broad peaks at 3420 and 3200 cm^−1) and ν2 bending mode (1596 cm^−1)).

SMILES | refractive index n [1] | stability, solid to solid transformation [2]
Nc1nc2nc[nH]c2c(=O)[nH]1 [Anhydrous guanine, guanine] | 1.83 and 1.81 | –
Nc1nc2nc[nH]c2c(=O)[nH]1.O [guanine monohydrate] | – | stable for at least several months
